Measured values as given in the Kinase Knowledgebase extract (Sharma et al. 2016).
Several values for one entry are separate records, joined by “and”; a condition that tells them apart may be missing. Equal entries are not always repeated.

The compounds below were run against PIK3CA (human) (UniProt P42336) (assay: Inhibition of PIK3CA Kinase Activity). Details: not given.
Chain of PIK3CA (human) (P42336 whole entry, looked up): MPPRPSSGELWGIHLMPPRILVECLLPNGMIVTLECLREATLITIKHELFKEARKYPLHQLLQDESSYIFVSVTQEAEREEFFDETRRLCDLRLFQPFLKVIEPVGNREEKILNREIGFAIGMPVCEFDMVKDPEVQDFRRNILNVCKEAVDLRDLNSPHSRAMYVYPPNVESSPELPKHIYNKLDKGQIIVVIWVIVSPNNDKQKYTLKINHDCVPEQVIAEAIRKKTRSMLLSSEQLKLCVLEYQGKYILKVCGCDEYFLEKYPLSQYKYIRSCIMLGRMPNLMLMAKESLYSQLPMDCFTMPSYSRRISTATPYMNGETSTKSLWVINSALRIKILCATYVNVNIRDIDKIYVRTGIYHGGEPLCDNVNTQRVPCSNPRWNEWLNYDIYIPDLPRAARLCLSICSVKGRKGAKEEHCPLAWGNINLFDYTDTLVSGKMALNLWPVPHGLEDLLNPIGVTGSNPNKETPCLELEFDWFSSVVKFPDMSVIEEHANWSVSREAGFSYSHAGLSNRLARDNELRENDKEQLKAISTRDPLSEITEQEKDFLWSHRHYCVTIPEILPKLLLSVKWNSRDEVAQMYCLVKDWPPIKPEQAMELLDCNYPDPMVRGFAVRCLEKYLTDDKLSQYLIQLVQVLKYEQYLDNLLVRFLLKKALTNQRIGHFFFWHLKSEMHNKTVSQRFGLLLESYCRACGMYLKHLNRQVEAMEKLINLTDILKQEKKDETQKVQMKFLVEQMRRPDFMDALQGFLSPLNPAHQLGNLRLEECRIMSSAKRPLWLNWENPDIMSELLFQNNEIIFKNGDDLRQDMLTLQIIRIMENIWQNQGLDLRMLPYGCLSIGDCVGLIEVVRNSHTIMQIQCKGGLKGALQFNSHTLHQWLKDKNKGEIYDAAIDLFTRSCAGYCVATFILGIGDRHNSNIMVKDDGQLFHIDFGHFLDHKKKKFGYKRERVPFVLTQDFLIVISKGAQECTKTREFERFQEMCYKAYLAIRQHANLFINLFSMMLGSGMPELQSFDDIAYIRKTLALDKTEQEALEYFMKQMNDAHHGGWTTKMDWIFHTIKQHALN

IC50 [nM]	SMILES
> 10000	COCCn1c(Cc2nc(N3CCOCC3)cc(=O)[nH]2)nc2ccccc21

These compounds were tested on ERBB2;PIK3CA (human), P42336 [Assessment of Cell Proliferation in MCF7.1 Cells Expressed by ERBB2/ PI3K(E545K)] (assay: Assessment of Cell Proliferation in MCF7.1 Cells Expressed by ERBB2/ PI3K(E545K)). Details: not given.
Chain of ERBB2;PIK3CA (human), P42336 [Assessment of Cell Proliferation in MCF7.1 Cells Expressed by ERBB2/ PI3K(E545K)] (P42336 whole entry, looked up, stated change not applied): as the sequence (P42336 whole entry, looked up) above

EC50	SMILES
40 nM and 33 nM	CS(=O)(=O)c1cccc(-c2cc3nc(-c4cnc(N)nc4)nc(N4CCOCC4)c3s2)c1
290 nM	CC(C)(N)c1cc2nc(-c3cnc(N)nc3)nc(N3CCOCC3)c2s1
170 nM	CN(Cc1cc2nc(-c3cnc(N)nc3)nc(N3CCOCC3)c2s1)S(C)(=O)=O
430 nM	Nc1ncc(-c2nc(N3CCOCC3)c3sccc3n2)cn1

SMILES	EC50
CC(=O)N(C)Cc1cc2nc(-c3cnc(N)nc3)nc(N3CCOCC3)c2s1	190 nM and 187 nM

Each compound was assayed against MAPK14 (human) (UniProt Q16539) (assay: Inhibition of Doubly Phosphorylated MAPK14 Kinase Activity (Biochemical Assay)). Details: not given.
Chain of MAPK14 (human) (Q16539 whole entry, looked up): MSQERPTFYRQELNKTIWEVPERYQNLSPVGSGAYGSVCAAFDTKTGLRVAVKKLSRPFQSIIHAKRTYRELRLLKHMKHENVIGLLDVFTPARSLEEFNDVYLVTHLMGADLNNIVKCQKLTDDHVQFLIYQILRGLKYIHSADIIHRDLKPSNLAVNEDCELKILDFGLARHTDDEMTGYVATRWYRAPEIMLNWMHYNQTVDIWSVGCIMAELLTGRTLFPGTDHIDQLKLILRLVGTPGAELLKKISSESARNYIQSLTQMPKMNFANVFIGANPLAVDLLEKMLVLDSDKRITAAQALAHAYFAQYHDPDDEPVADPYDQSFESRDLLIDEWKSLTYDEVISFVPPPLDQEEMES

IC50 [nM]	SMILES
86	Cc1ccsc1-c1cc(NC(=O)Nc2cccc(Cl)c2Cl)n(-c2cccc(CC(N)=O)c2)n1
12	NC(=O)Cc1cccc(-n2nc(-c3ccccc3)cc2NC(=O)Nc2cccc(Cl)c2Cl)c1
10	NC(=O)Cc1cccc(-n2nc(-c3ccccc3F)cc2NC(=O)Nc2cccc(Cl)c2Cl)c1
21	NC(=O)Cc1cccc(-n2nc(-c3cccc(F)c3)cc2NC(=O)Nc2cccc(Cl)c2Cl)c1
58	NC(=O)Cc1cccc(-n2nc(-c3cccc(Cl)c3)cc2NC(=O)Nc2cccc(Cl)c2Cl)c1

What follows are compounds tested against MAPK14 (human) (UniProt Q16539) (assay: Inhibition of LPS-stimulated TNF-alpha Production in Human Monocytic Cells). Details: thp.1 monocytic.

SMILES	IC50 [nM]
C[C@H](Nc1nccc(-c2nn3c(c2-c2ccc(F)cc2)OCC3)n1)c1ccccc1	> 2000
CCOCn1nnc(-c2ccncc2)c1-c1ccc(F)cc1	490
COC[C@H](C)Nc1nccc(-c2nn3c(c2-c2ccc(F)cc2)OCC3)n1	1700
CC[C@H](C)Nc1nccc(-c2nn3c(c2-c2ccc(F)cc2)OCC3)n1	80
Fc1ccc(-c2c(-c3ccnc(Oc4ccccc4)n3)nn3c2OCCC3)cc1	> 10000

What follows are compounds tested against PIK3CA (human) (UniProt P42336) (assay: Assessment of PIK3CA Kinase Activity). Details: not given.

IC50 [nM]	SMILES
16	Nc1ncc(-c2cnc3ccc(-c4ccc(C(=O)N5CCN(Cc6ccccn6)CC5)cc4)nn23)cc1C(F)(F)F
< 100	CN1CC2CN(c3cnc4ncc(-c5ccc6oc(N)nc6c5)cc4n3)CC2C1 (stereo not given)

The compounds below were run against EGFR (human) (UniProt P00533) (assay: not given). Details: not given.
Chain of EGFR (human) (P00533 whole entry, looked up): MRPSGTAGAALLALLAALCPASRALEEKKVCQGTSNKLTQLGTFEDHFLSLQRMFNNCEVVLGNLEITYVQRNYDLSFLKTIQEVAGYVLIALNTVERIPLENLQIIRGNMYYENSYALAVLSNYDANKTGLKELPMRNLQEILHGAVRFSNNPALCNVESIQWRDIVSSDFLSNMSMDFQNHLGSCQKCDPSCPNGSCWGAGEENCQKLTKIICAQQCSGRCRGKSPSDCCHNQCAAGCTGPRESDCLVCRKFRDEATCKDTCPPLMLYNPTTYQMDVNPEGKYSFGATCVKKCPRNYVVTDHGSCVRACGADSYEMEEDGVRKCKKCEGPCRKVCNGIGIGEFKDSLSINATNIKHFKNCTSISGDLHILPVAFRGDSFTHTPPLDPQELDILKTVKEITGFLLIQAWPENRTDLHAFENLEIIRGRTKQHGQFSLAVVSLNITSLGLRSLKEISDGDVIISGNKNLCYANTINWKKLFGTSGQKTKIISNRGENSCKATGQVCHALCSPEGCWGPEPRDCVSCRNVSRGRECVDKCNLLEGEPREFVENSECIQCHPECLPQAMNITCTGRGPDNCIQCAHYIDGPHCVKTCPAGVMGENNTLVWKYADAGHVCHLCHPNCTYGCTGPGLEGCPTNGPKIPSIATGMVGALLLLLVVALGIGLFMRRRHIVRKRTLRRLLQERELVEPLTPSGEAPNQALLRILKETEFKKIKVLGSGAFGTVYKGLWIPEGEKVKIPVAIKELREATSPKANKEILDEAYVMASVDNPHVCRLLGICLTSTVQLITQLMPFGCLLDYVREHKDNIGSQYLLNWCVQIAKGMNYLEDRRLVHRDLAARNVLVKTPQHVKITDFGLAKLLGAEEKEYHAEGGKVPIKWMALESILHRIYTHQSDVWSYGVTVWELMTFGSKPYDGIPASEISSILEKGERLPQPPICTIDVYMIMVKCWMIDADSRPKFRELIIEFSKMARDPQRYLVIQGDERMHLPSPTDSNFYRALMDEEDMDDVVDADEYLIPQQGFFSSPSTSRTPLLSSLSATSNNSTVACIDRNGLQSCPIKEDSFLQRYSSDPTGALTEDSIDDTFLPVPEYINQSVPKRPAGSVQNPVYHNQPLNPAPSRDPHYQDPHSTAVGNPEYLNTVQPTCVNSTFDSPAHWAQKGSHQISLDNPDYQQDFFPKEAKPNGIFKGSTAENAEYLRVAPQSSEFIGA

SMILES	IC50 [nM]
C=C=CCCCCOc1cc2c(Nc3ccc(F)c(Cl)c3)ncnc2cc1OC	65.5
C=C=CCOc1cc2c(Nc3ccc(F)c(Cl)c3)ncnc2cc1OC	23.8

Results, then the compound that gave them:

IC50 [nM]	SMILES
16.9	C=C=CCOc1cc2c(Nc3cccc(Cl)c3)ncnc2cc1OC
28.5	C=C=CCCCOc1cc2c(Nc3cccc(Cl)c3)ncnc2cc1OC

The compounds below were run against PIK3CB;PIK3CG;PIK3CD;PIK3CA (human) (UniProt P48736) (assay: Inhibition of PIK3CA/PIK3CB/PIK3CD/PIK3CG Kinase Activity). Details: not given.

IC50 [nM]	SMILES
724	COc1c(Cl)ncnc1NCc1cc2cccc(Cl)c2nc1-c1ccccc1
3230	Fc1cnc(Cl)nc1NCc1cc2cccc(Cl)c2nc1-c1ccccc1Cl
15300	Cc1cccc2cc(CNc3ccnc(C(N)=O)c3)c(-c3ccccc3Cl)nc12
913	Nc1ncc(F)c(NCc2cc3cccc(Cl)c3nc2-c2ccccc2Cl)n1

SMILES	IC50 [nM]
C[C@H](Nc1nc(N)ncc1Cl)c1cc2cccc(Cl)c2nc1-c1ccccn1	106

What follows are compounds tested against PIK3CG (human) (UniProt P48736) (assay: Enzyme Assay). Details: not given.
Chain of PIK3CG (human) (P48736 whole entry, looked up): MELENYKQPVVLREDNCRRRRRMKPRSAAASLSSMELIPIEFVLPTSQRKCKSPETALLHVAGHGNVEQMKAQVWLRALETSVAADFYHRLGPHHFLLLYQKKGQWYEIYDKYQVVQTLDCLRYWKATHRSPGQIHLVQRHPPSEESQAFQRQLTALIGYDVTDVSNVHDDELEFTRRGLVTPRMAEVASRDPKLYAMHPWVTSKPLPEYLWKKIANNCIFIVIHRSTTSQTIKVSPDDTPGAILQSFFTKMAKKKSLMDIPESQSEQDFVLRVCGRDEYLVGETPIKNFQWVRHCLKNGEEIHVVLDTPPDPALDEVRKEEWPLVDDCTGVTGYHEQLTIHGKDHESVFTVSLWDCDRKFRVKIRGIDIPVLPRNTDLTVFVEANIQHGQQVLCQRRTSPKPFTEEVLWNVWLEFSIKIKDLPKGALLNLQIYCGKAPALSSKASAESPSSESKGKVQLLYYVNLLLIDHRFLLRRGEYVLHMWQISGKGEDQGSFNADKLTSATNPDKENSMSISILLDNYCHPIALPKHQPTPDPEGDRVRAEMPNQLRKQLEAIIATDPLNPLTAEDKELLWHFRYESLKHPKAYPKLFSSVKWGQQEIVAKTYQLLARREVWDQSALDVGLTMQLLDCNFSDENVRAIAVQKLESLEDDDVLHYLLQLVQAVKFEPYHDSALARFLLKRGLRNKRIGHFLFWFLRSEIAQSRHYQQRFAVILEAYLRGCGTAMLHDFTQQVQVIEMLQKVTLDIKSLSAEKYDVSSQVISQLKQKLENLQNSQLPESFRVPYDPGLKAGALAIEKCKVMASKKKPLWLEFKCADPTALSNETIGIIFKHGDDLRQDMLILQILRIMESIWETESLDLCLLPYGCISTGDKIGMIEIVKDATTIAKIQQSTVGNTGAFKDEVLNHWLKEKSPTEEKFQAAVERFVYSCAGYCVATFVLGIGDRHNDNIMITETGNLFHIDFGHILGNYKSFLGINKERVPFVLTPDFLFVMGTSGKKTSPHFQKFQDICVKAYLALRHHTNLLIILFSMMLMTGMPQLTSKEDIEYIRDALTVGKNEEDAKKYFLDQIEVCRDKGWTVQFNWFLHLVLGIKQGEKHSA

IC50 [nM]	SMILES
1270	Nc1ncc(-c2cnc3ccc(-c4ccc(C(=O)N5CCN(Cc6ccccn6)CC5)cc4)nn23)cc1C(F)(F)F

These compounds were tested against CDK2 (human) (UniProt P24941) (assay: Enzyme Assay). Details: not given.

IC50 [nM]	SMILES
50	Cc1ccnc(NS(=O)(=O)c2ccc(Nc3nc(C)c4c(=O)[nH]c(Nc5cccc(Cl)c5)nc4n3)cc2)n1
> 10000	Cc1ccnc(NS(=O)(=O)c2ccc(Nc3nc(C)c4c(=O)[nH]c(Nc5ccc(S(=O)(=O)O)cc5)nc4n3)cc2)n1

These compounds were tested against EGFR (human) (UniProt P00533) (assay: not given). Details: hn5.

IC50 [nM]	SMILES
1600	CS(=O)(=O)CCNCc1nc(-c2ccc3ncnc(Nc4ccc(OCc5ccccc5)cc4)c3c2)cs1
570	CS(=O)(=O)CCNCc1nc(-c2ccc3ncnc(Nc4ccc(F)c(Cl)c4)c3c2)cs1
110	CS(=O)(=O)CCNCc1nc(-c2ccc3ncnc(Nc4ccc5c(cnn5Cc5ccccc5)c4)c3c2)cs1
230	CS(=O)(=O)CCNCc1nc(-c2ccc3ncnc(Nc4ccc(OCc5ccccc5)c(Cl)c4)c3c2)cs1

What follows are compounds tested against PIK3CD (Human) (UniProt O00329) (assay: Inhibition of PIK3CD Kinase Activity). Details: not given.

SMILES	IC50 [nM]
C[C@H](Nc1nc(N)ncc1Cl)c1cc2cccc(Cl)c2nc1-c1ccccn1	105

These compounds were tested against MAPK14 (human) (UniProt Q16539) (assay: TNF Inhibition (PBMC)). Details: not given.

IC50 [nM]	SMILES
400	COc1ccc2c(-c3ccncc3)c(-c3ccc(F)cc3)[nH]c2c1
200	Nc1ccc2c(-c3ccncc3)c(-c3ccc(F)cc3)[nH]c2c1
> 10000	Fc1ccc(-c2[nH]c3ccccc3c2-c2ccncc2)cc1

Same assay, conditions: concentration not given here

SMILES	inhibition [%]
CC(=O)OCCCCc1nc(-c2ccncc2)c(-c2ccc(F)cc2)n1COCC[Si](C)(C)C	0
C[Si](C)(C)CCOCn1c(CCCCO)nc(-c2ccncc2)c1-c1ccc(F)cc1	0

The compounds below were run against PIK3CB (Human) (UniProt P42338) (assay: Assessment of PIK3CB Kinase Activity). Details: not given.
Chain of PIK3CB (Human) (P42338 whole entry, looked up): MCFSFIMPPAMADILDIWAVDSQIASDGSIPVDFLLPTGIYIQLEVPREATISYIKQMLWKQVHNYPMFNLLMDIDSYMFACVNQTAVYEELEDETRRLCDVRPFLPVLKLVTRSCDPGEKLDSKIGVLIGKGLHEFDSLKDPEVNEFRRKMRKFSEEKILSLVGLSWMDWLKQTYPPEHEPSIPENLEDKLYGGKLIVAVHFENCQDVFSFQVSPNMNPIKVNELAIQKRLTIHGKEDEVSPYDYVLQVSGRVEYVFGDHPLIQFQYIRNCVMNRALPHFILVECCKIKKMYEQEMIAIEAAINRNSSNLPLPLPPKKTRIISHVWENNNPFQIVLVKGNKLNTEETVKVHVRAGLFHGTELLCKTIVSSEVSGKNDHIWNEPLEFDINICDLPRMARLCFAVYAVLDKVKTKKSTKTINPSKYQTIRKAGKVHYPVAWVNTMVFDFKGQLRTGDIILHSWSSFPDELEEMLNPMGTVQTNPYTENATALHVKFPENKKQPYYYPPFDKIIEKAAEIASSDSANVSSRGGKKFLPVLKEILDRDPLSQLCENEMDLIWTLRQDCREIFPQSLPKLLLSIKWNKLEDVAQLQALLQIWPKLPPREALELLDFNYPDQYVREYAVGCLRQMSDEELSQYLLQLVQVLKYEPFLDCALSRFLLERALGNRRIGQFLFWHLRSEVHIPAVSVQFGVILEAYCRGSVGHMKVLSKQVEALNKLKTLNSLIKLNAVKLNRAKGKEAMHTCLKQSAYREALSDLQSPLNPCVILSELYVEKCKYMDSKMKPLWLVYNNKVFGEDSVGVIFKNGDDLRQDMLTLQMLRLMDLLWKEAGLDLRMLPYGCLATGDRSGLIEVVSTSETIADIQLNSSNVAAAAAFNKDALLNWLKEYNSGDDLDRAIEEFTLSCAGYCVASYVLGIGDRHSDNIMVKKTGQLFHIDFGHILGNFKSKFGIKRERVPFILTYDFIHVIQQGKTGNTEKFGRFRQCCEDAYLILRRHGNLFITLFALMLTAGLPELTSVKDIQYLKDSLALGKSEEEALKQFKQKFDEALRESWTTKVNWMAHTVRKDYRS

IC50 [nM]	SMILES
13	Cc1c(Cn2ccn3c(=O)cc(C4C=COCC4)nc23)cccc1C(F)(F)F (stereo not given)
979	Nc1ncc(-c2cnc3ccc(-c4ccc(C(=O)N5CCN(Cc6ccccn6)CC5)cc4)nn23)cc1C(F)(F)F
100 to 1000	CN1CC2CN(c3cnc4ncc(-c5ccc6oc(N)nc6c5)cc4n3)CC2C1 (stereo not given)
205	COCCn1c(Cc2nc(N3CCOCC3)cc(=O)[nH]2)nc2ccccc21

SMILES	IC50 [nM]
CC(Nc1ccc(F)cc1)c1cc(C(=O)N(C)C)cc2c(=O)cc(N3CCO[C@@H](C)C3)oc12 (stereo not given in full)	64
